ChEMBL document CHEMBL6074684, “Structure-activity relationship study of novel evodiamine amino acid conjugates with potent anti-colorectal cancer efficacy” (Eur J Med Chem, 2025)
In brackets after ≈: the same amount, converted by molar mass. Activity calls are given as the source filed them. The calls are words filed in the database; no cut-off is given here.

Assays:
[1] = Potency index, ratio of topotecan IC50 to test compound IC50 for antiproliferative activity against human RKO cells assessed as inhibition of cell growth incubated for 72 hrs by MTT assay; type: functional
RKO [2] = test: Cell cycle arrest in human RKO cells assessed as accumulation of cells at G2 phase at 10 nM incubated for 24 hrs by […]PI staining based flow cytometric analysis (reference value: 20.07 %); type: functional
[3] = target: T1, DNA topoisomerase 1 (Homo sapiens) (UniProt P11387); test: Inhibition of topoisomerase 1 (unknown origin) mediated DNA relaxation at 100 uM preincubated for 20 mins followed by pBR322 plasmid DNA addition and measured after 15 mins by red nucleic acid gel staining based agarose gel electrophoresis; conditions: time 35.0 min
T1 sequence (whole entry): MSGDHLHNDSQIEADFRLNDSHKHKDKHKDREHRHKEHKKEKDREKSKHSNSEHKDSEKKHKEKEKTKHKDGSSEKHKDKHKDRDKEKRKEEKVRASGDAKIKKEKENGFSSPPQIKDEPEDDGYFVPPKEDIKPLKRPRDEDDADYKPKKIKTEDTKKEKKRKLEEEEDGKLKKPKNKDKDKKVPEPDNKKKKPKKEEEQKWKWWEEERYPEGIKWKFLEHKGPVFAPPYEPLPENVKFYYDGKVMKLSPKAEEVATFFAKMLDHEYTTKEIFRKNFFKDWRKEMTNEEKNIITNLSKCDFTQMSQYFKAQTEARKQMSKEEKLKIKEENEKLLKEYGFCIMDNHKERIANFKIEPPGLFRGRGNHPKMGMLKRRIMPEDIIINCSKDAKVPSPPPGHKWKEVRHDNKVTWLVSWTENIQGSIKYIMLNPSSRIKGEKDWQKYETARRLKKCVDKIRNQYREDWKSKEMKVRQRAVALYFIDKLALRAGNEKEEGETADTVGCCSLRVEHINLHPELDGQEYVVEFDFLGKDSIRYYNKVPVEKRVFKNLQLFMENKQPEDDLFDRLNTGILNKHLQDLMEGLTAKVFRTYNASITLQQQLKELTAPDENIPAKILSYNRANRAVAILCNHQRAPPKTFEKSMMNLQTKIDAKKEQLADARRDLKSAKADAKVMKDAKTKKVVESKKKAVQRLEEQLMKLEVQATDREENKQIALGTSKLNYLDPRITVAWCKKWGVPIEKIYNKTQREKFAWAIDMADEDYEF

RKO [4] = test: Cell cycle arrest in human RKO cells assessed as accumulation of cells at G2 phase at 30 nM incubated for 24 hrs by […]PI staining based flow cytometric analysis (reference value: 20.07 %); type: functional
[5] = Stability of compound in rat plasma assessed as half-life; type: ADME, cell-free
RKO [6] = test: Cell cycle arrest in human RKO cells assessed as accumulation of cells at S phase at 30 nM incubated for 24 hrs by […]PI staining based flow cytometric analysis (reference value: 43.36 %); type: functional
[7] = Tmax in male Sprague-Dawley rat at 50 mg/kg, ip measured after 24 hrs by LC-MS/MS analysis; type: ADME, organism-based; conditions: in vivo
Mitochondrial membrane [8] = test: Induction of mitochondrial membrane potential loss in human RKO cells assessed as TMRE positive cells at 90 nM incubated for 24 hrs by TMRE staining based flow cytometric analysis (reference value: 95.54 %); type: cell membranes
[9] = Cmax in male Sprague-Dawley rat at 50 mg/kg, ip measured after 24 hrs by LC-MS/MS analysis; type: ADME, organism-based; conditions: in vivo
RKO [10] = test: Cell cycle arrest in human RKO cells assessed as accumulation of cells at G1 phase at 30 nM incubated for 24 hrs by […]PI staining based flow cytometric analysis (reference value: 35.29 %); type: functional
[11] = Toxicity in male BALB/c nude mouse xenografted with human LoVo cells assessed as tolerance at 40 mg/kg, ip administered once daily for 14 days; type: organism-based; conditions: in vivo, 336 h, time 14 day
[12] = Stability of compound at pH 5.5 assessed as residual rate measured after 2 days; type: physicochemical; conditions: buffer, time 2 day, read-out: Stability
LoVo [13] = test: Cell cycle arrest in human LoVo cells assessed as accumulation of cells at S phase cells at 90 nM incubated for 24 hrs by […]PI staining based flow cytometric analysis (reference value: 54.99 %); type: functional
RKO [14] = test: Induction of morphological changes in human RKO cells assessed as appearance of condensed morphology incubated for 24 hrs by Giemsa staining based microscopic analysis; type: functional, cell-based; conditions: dose 10-90 nM
[15] = Chemical stability of compound in McCoy's 5A cell culture medium containing 1 % DMSO assessed as (S)-3-fluoro-14-(3-fluorophenyl)-10-hydroxy-8,13,13b,14-tetrahydroindolo[2',3':3,4]pyrido[2,1-b]quinazolin-5(7H)-one release by measuring retention time at 100 uM incubated for 24 hrs by HPLC analysis; type: physicochemical
RKO [16] = test: Antiproliferative activity against human RKO cells assessed as reduction in cell viability measured after 24 hrs; type: functional, cell-based; conditions: dose 40-200 nmol/L
LoVo [17] = test: Cell cycle arrest in human LoVo cells assessed as accumulation of cells at G2 phase cells at 30 nM incubated for 24 hrs by […]PI staining based flow cytometric analysis (reference value: 14.84 %); type: functional
Mitochondrial membrane [18] = test: Induction of mitochondrial membrane potential loss in human LoVo cells assessed as TMRE positive cells at 90 nM incubated for 24 hrs by TMRE staining based flow cytometric analysis (reference value: 95.93 %); type: cell membranes
RKO [19] = test: Induction of morphological changes in human RKO cells assessed as appearance of contracted nucleus incubated for 24 hrs by Giemsa staining based microscopic analysis; type: functional, cell-based; conditions: dose 10-90 nM
HGC-27 = test: Antiproliferative activity against human HGC-27 cells assessed as inhibition of cell growth incubated for 72 hrs by MTT assay; type: functional, cell-based; conditions: HGC-27, 72 h
RKO [20] = test: Cell cycle arrest in human RKO cells assessed as accumulation of cells at S phase at 10 nM incubated for 24 hrs by […]PI staining based flow cytometric analysis (reference value: 43.36 %); type: functional
LoVo [21] = test: Cell cycle arrest in human LoVo cells assessed as accumulation of cells at G2 phase cells at 90 nM incubated for 24 hrs by […]PI staining based flow cytometric analysis (reference value: 14.84 %); type: functional
[22] = Stability of compound at pH 7.4 assessed as residual rate measured after 2 days; type: physicochemical; conditions: buffer, time 2 day, read-out: Stability
[23] = Aqueous solubility of compound by HPLC analysis; type: physicochemical
SGC-7901 = test: Antiproliferative activity against human SGC-7901 cells assessed as inhibition of cell growth incubated for 72 hrs by MTT assay; type: functional, cell-based; conditions: SGC-7901, 72 h
LoVo [24] = test: Cell cycle arrest in human LoVo cells assessed as accumulation of cells at S phase cells at 10 nM incubated for 24 hrs by […]PI staining based flow cytometric analysis (reference value: 54.99 %); type: functional
HCT-116 = test: Antiproliferative activity against human […] cells assessed as inhibition of cell growth incubated for 72 hrs by MTT assay; type: functional, cell-based; conditions: HCT-116, 72 h
LoVo [25] = test: Cell cycle arrest in human LoVo cells assessed as accumulation of cells at G1 phase cells at 30 nM incubated for 24 hrs by […]PI staining based flow cytometric analysis (reference value: 29.69 %); type: functional

SMILES: CC(C)(C)OC(=O)N[C@@H](CCC(N)=O)C(=O)Oc1ccc2[nH]c3c(c2c1)CCN1C(=O)c2cc(F)ccc2N(c2cccc(F)c2)[C@H]31
- Ratio IC50 [1]: 3.4
- Activity (RKO [2]): 27.14%
- inhibition [3]: Active
- Activity (RKO [4]): 56.8%
- half-life [5]: 36 min
- Activity (RKO [6]): 25.51%
- Tmax [7]: 60 min
- Activity (Mitochondrial membrane [8]): 85.1%
- Cmax [9]: 7080 ng/mL
- Activity (RKO [10]): 16.95%
- Activity [11]: Non-toxic
- remaining at 48 h [12]: 60.1%
- Activity (LoVo [13]): 53.62%
- Activity (RKO [14]): Dose-dependent-effect
- Retention_time [15]: 6.24 min
- Activity (RKO [16]): Dose-dependent-effect
- Activity (LoVo [17]): 61.56%
- Activity (Mitochondrial membrane [18]): 86.7%
- Activity (RKO [19]): Dose-dependent-effect
- IC50 (HGC-27): 110 nM
- Activity (RKO [20]): 42.5%
- Activity (LoVo [21]): 19.93%
- remaining at 48 h [22]: 40.2%
- solubility [23]: 11.4 µg/mL (≈ 17.7 µM)
- IC50 (SGC-7901): 490 nM
- Activity (LoVo [24]): 45.15%
- IC50 (HCT-116): 260 nM
- Activity (LoVo [25]): 10.27%
